One test concerns Pfeiffer cell line. The experiment in a line: Anti-proliferative activity, Pfeiffer cell line, 7 day treatment. The test is classed as cell-based. The method in brief:
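Cells seeded at 2 000-3 000 per well were treated with serially diluted compounds for 7 days at 37° C, 5% CO2. Growth was measured by WST-8 assay read at 450 nm after 1-4 h reagent incubation. Readings were normalized to DMSO-treated cells and IC50 values derived by nonlinear regression.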

The target in another test is T1, EED (1-441)-His protein (Homo sapiens, UniProt O75530).
T1 construct: 20 nM EED (1-441)-His protein
T1 sequence (O75530 whole entry): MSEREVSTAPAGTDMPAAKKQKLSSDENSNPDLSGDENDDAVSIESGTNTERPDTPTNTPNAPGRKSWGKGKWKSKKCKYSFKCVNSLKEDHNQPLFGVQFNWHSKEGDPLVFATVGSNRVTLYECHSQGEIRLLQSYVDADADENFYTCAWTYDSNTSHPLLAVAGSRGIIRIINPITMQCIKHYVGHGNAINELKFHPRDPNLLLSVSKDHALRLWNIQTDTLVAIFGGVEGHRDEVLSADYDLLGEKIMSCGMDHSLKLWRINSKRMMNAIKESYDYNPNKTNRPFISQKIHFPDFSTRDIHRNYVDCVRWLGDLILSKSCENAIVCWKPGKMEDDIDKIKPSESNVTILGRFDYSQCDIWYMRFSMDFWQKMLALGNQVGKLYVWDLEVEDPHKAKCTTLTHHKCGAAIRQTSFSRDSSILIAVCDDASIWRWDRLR
The experiment in a line: EED-H3K27Me3 peptide competition binding assay by AlphaScreen. The settings on record: EED Alpha screen binding assay, read-out: Alpha screen. On the procedure: “N/A” stands for “not assessed”.
EED-H3K27Me3 peptide competition binding assay by AlphaScreen (α-screen)
2.5 μl of solutions containing 20 nM biotin-H3K27Me3 (19-33) peptide in the buffer (25 mM HEPES, pH 8, 0.02% Tween-20, 0.5% BSA) were added to the wells and then incubated with compound for 30 min. […] Then 10 μl of the detection beads mix was added to the plate and incubated in the dark at RT for 1 h. The final concentration of donor and acceptor beads was 10 μg/ml for each. […] The data were then fit to a dose response equation to get the IC50 values.

For test [1], the system named is KARPAS422 human B cell lymphoma cell. The experiment in a line: Cell proliferation, KARPAS422, 7 day treatment (WST-8). It is filed as cell-based. In outline:
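KARPAS422 cells seeded at 2 000-3 000 cells/well and exposed to serially diluted compounds for 7 days at 37 °C, 5% CO2. Growth measured by WST-8 (1-4 h, absorbance 450 nm). Readings normalized to DMSO-treated cells; IC50 from nonlinear regression.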

The record followed here is patent US12145944B2, “Imidazopyrimidines as EED inhibitors and the use thereof” (THE REGENTS OF THE UNIVERSITY OF MICHIGAN, priority 2019, dated 2024).

Read-outs that look alike come from different tables or passages of the source.

For the molecule `O=C1c2ncn3c(NCc4c(F)ccc5c4CCO5)ncc(c23)-c2ccc(C3COC3)nc2CN1CC(F)(F)F` [E 51, 12-(((5-fluoro-2,3-dihydrobenzofuran-4-yl)methyl)amino)-7-(oxetan-3-yl)-4-(2,2,2-trifluoroethyl)-4,5-dihydro-3H-2,4,6,11,12a-pentaazabenzo[4,5]cycloocta[1,2,3-cd]inden-3-one], the IC50 in the test on Pfeiffer cell line (Homo sapiens, 168 h, anti-proliferative IC50 class, Pfeiffer cell line, 7 day treatment, read-out: Pfeiffer Cell line) is < 10 nM; at EED (1-441)-His protein (IC50 class), < 10 nM; in test [1] (Homo sapiens, KARPAS-422, 168 h, anti-proliferative IC50 class, Karpas 422 cell line, 7 day treatment, read-out: Karpas Cell line) it was < 10 nM.
For the molecule `O=C1Nc2ncccc2-c2cnc(NCc3c(F)ccc4c3CCO4)n3cnc1c23` [compound 4, 11-(((5-fluoro-2,3-dihydrobenzofuran-4-yl)methyl)amino)-2,4,5,10,11a-pentaazadibenzo[cd,f]azulen-3(4H)-one], the IC50 in the test on Pfeiffer cell line (Homo sapiens, 168 h, anti-proliferative IC50, Pfeiffer cell line, 7 day treatment, read-out: Pfeiffer Cell line) is > 100 nM; at EED (1-441)-His protein, > 10 nM; in test [1] (Homo sapiens, KARPAS-422, 168 h, anti-proliferative IC50, Karpas 422 cell line, 7 day treatment, read-out: Karpas Cell line) it was > 100 nM.
As to `O=C1c2ncn3c(NCc4c(F)ccc5c4CCO5)ncc(c23)-c2sccc2CN1C1CC1` [compound 87, 4-cyclopropyl-11-(((5-fluoro-2,3-dihydrobenzofuran-4-yl)methyl)amino)-4,5-dihydro-3H-8-thia-2,4,10,11a-tetraazacyclopenta[4,5]cycloocta[1,2,3-cd]inden-3-one], the IC50 is 0.018 nM in the test on Pfeiffer cell line (anti-proliferative IC50, Pfeiffer cell line, 7 day treatment, read-out: Pfeiffer Cell line); 11.2 nM on EED (1-441)-His protein; 8.67 nM in test [1] (anti-proliferative IC50, Karpas 422 cell line, 7 day treatment, read-out: Karpas Cell line).
With `CS(=O)(=O)c1ncn2c(NCc3c(F)ccc4c3CCO4)ncc(-c3ccc(C(F)(F)F)nc3)c12` [compound 102, N-((5-fluoro-2,3-dihydrobenzofuran-4-yl)methyl)-1-(methylsulfonyl)-8-(6-(trifluoromethyl)pyridin-3-yl)imidazo[1,5-c]pyrimidin-5-amine], the IC50 was determined as 0.59 nM in the test on Pfeiffer cell line (Homo sapiens, Pfeiffer, 168 h, read-out: Pfeiffer Cell line (nM)); 0.62 nM at EED (1-441)-His protein; 0.94 nM in test [1] (Homo sapiens, KARPAS-422, 168 h, read-out: Karpas Cell line (nM)).
